{
  "source": "patent US7553843B2",
  "about": "“Process for the preparation of purified crystalline CCI-779” (Wyeth, priority 2005, dated 2009)",
  "key": {"[1]": {"system": "human glioblastoma cell line", "details": "in vitro; cited from earlier work"}, "[2]": {"system": "orthotopic glioma model", "details": "nude mice; cited from earlier work"}, "[3]": {"system": "human tumor xenografts", "details": "nude mice; cited from earlier work"}, "[4]": {"system": "histologically diverse tumor cells", "details": "in vitro, cited from earlier work"}, "[5]": {"assay": "Storage stability of purified crystalline CCI-779, HPLC strength", "format": "physicochemical", "description": "The good crystallinity of the purified CCI-779 contributes to the improved stability of the purified CCI-779 and longer shelf life, and contains less oxidative impurities. In one embodiment, the purified crystalline CCI-779 of the present invention degrades less than about 3%, less than about 2%, or less than about 1% over a period of about 1 month. Desirably, the purified crystalline CCI-779 retains greater than 97% strength over a period of about 3 months, and more desirably about 6 months at about 5° C. as measured by high performance liquid chromatography (HPLC), among other techniques. The strength is similarly maintained at elevated temperatures up to about 70° C., desirably up to about 51° C., more desirably temperatures up to about 25° C. and greater relative humidities up to about 60%, and most desirably temperatures at about 5° C., or combinations thereof. In one embodiment, the purified crystallized CCI-779 prepared according to the present invention maintains its stability at a temperature of about 25° C. and relative humidity of about 60% for up to about 3 months, and more desirably up to about 6 months.\nFollowing nucleation, the batch was aged for 34 minutes as indicated by the FBRM® instrument to obtain stabilization of the chord count. The pentanediol and heptane were added as described in Example 1. The isolated purified crystalline CCI-779 was washed and dried at 40 EC under vacuum for 48 hours. A yield of 176.3 g of purified crystalline CCI-779 was obtained (87.6%). See Table 1 for the HPLC data for the purified CCI-779 obtained immediately after crystallization and samples tested after 2 weeks and 1 month at varying conditions.\nThis example was performed using the same protocol as described in Example 2. However, filtration of the crude CCI-779 solution in acetone was completed in 30 minutes by using a medium grit fritted funnel. Following distillation of the acetone, the batch was held as an amorphous foam/oil for 2 hours under reduced pressures. Diethyl ether was then added to the foam/oil and the diethyl ether solution was evaluated for acetone content (8.5 vol %). The diethylether (containing acetone) was then removed by distillation to obtain an amorphous foam. This foam was maintained under reduced pressures for 30 minutes and diethyl ether again added. The diethylether was again monitored for acetone contact and determined to be less than 3.6 vol % acetone. The crystallization was the continued as in Example 2. The induction time for nucleation, i.e., the time required to obtain a chord count for particles of about 1 to about 5 μm particles of greater than about 1500 chords/s was 26 minutes. Following the nucleation, the slurry was stirred for additional time to ensure stabilization of the nucleation. Following isolation and drying as outlined above, a final yield of 175.1 g of purified crystalline CCI-779 was obtained (87.3%). See Table 2, for the HPLC data for the purified crystalline CCI-779 obtained immediately after crystallization and samples tested after 2 weeks and 1 month at varying conditions."}},
  "data": [
    {"smiles": "CO[C@H]1C[C@@H]2CC[C@@H](C)[C@@](O)(O2)C(=O)C(=O)N2CCCC[C@H]2C(=O)O[C@H]([C@H](C)C[C@@H]2CC[C@@H](OC(=O)C(C)(CO)CO)[C@H](OC)C2)CC(=O)[C@H](C)/C=C(\\C)[C@@H](O)[C@@H](OC)C(=O)[C@H](C)C[C@H](C)/C=C/C=C/C=C/1C", "note": "[CCI-779, Rapamycin 42-ester with 3-hydroxy-2-(hydroxymethyl)-2-methylpropionic acid]", "values": [
      {"measurement": "growth factor (platelet-derived)-induced stimulation of a human glioblastoma cell line", "setting": "[1]", "value": "markedly suppressed"},
      {"measurement": "activity in orthotopic glioma model", "setting": "[2]", "value": "active"},
      {"measurement": "activity against human tumor xenografts of diverse histological types", "setting": "[3]", "value": "has activity"},
      {"measurement": "growth of several human pancreatic tumors and one of two breast cancer lines", "setting": "[3]", "value": "inhibited"},
      {"measurement": "growth of tumor cells", "setting": "[4]; CNS cancer, T-cell leukemia, breast, prostate, melanoma lines most sensitive", "value": "inhibit the growth"},
      {"measurement": "cell cycle effect", "setting": "[4]", "value": "arrested cells in the G1 phase"},
      {"measurement": "HPLC Strength", "setting": "[5]; Example 2 batch, Initial (immediately after crystallization)", "value": 101.09, "unit": "%"},
      {"measurement": "HPLC Strength", "setting": "[5]; Example 2 batch, storage 5° C., 1 Month", "value": 97.42, "unit": "%"},
      {"measurement": "HPLC Strength", "setting": "[5]; Example 2 batch, storage 5° C., 2 Weeks", "value": 101.09, "unit": "%"},
      {"measurement": "HPLC Strength", "setting": "[5]; Example 2 batch, storage 25° C./60% RH, 1 Month", "value": 97.87, "unit": "%"},
      {"measurement": "HPLC Strength", "setting": "[5]; Example 2 batch, storage 25° C./60% RH, 2 Weeks", "value": 101.07, "unit": "%"},
      {"measurement": "HPLC Strength", "setting": "[5]; Example 3 batch, Initial (immediately after crystallization)", "value": 100.45, "unit": "%"},
      {"measurement": "HPLC Strength", "setting": "[5]; Example 3 batch, storage 5° C., 1 Month", "value": 97.55, "unit": "%"},
      {"measurement": "HPLC Strength", "setting": "[5]; Example 3 batch, storage 5° C., 2 Weeks", "value": 100.45, "unit": "%"},
      {"measurement": "HPLC Strength", "setting": "[5]; Example 3 batch, storage 25° C./60% RH, 1 Month", "value": 97.81, "unit": "%"},
      {"measurement": "HPLC Strength", "setting": "[5]; Example 3 batch, storage 25° C./60% RH, 2 Weeks", "value": 101.30, "unit": "%"}
    ]}
  ]
}
